According to patent US9775902B2, “Compounds and methods for treatment of stroke” (FIBROGEN, INC, priority 2006, dated 2017):
Where two headings read alike, the source gives them in different places.

Columns and labels:
erythropoietin (EPO) [1] = assay: EPO expression in Hep3B cells (QUANTIKINE immunoassay of conditioned media); assay type: cell-based, Human; details: for Fold Increase Over Control: EPO, vs 1% DMSO control; for EPO: conditioned media after overnight incubation with compound
Description: The effect of compounds of the present invention on expression of cytoprotective and neuroprotective factors in cells was evaluated as follows. Human cells derived from hepatocarcinoma (Hep3B) tissue (see, e.g., American Type Culture Collection, Manassas Va.) were seeded into 35 mm culture dishes and grown at 37° C., 20% O2, 5% CO2 in Minimal Essential Medium (MEM), Earle's balanced salt solution (Mediatech Inc., Herndon Va.), 2 mM L-glutamine, 0.1 mM non-essential amino acids, 1 mM sodium pyruvate, and 10% FBS. When cell layers reached confluence, the media was replaced with OPTI-MEM media (Invitrogen Life Technologies, Carlsbad Calif.) and cell layers were incubated for approximately 24 hours in 20% O2, 5% CO2 at 37° C. Various compounds of the present invention or 1% DMSO (negative control) were then added to existing media and incubation was continued overnight.
Following incubation, the conditioned media was collected from cell cultures and analyzed for erythropoietin (EPO) expression using a QUANTIKINE immunoassay (R&D Systems, Inc., Minneapolis Minn.) according to the manufacturer's instructions.

erythropoietin (EPO) [2] = assay: EPO expression in Kelly neuroblastoma cells; assay type: cell-based; details: for EPO: conditioned media after overnight incubation
Description: (§1) The effect of compounds of the present invention on expression of cytoprotective and neuroprotective factors in neuroblastoma cells was evaluated as follows. Kelly neuroblastoma cells (see, e.g., DSMZ, cat# ACC-355, Braunschweig Germany) were treated with various compounds of the present invention or 1% DMSO (negative control). Following an overnight incubation, the conditioned media was collected from cell cultures and analyzed for erythropoietin (EPO) and vascular endothelial growth factor (VEGF) expression using a QUANTIKINE immunoassay (R&D Systems, Inc., Minneapolis Minn.) according to the manufacturer's instructions.

[3] = tested on: vascular endothelial growth factor (VEGF); assay: VEGF expression in Kelly neuroblastoma cells; assay type: cell-based; details: for VEGF: conditioned media after overnight incubation
Description: as §1

erythropoietin = assay: Plasma EPO in mice after intravenous injection; assay type: in vivo, Swiss Webster mice; details: mouse plasma, 20 mg/kg i.v., four hours after injection; for fold induction at 20 mg/kg: iv, 4 h, read-out: EPO Fold Increase
Description: (§2) The effect of compounds of the present invention on expression of cytoprotective and neuroprotective factors in vivo was evaluated as follows. In one series of experiments, male Swiss Webster mice (29-34 g) were administered various compounds of the present invention via intravenous injection into the caudal tail vein. Animals treated by intravenous injection received a 6 ml/kg volume of either 5% Dextrose with an equimolar amount of NaOH or Meglumine (vehicle control) or 20 mg/kg of a compound of the present invention in 5% dextrose with an equimolar amount of NaOH or Meglumine. Four hours after injection, the animals were anesthetized and exsanguinated. Plasma samples were collected in EDTA and heparin coated microtainer tubes. Plasma samples were assayed for erythropoietin and VEGF using commercially-available ELISA kits purchased from R & D Systems (Minneapolis Minn.).

VEGF = assay: Plasma VEGF in mice after intravenous injection; assay type: in vivo, Swiss Webster mice; details: mouse plasma, 20 mg/kg i.v., four hours after injection; for fold induction at 20 mg/kg: iv, 4 h, read-out: VEGF Fold Increase
Description: as §2

[4] = tested on: C57BL/6 mice, permanent occlusion of the MCA; assay: Permanent middle cerebral artery occlusion (pMCAO) in C57BL/6 mice: infarct volume and edema; assay type: in vivo; details: Mus musculus, iv, 24 h, C57BL/6 mice pMCAO, 20-60 mg/kg i.v., 24 hours after MCA occlusion, read-out: Percent Reduction in Infarct Volume
Description: The effect of compounds of the present invention on infarct volume and edema associated with stroke was examined in an animal model of ischemic stroke. In these studies, mice were subjected to permanent occlusion of the middle cerebral artery. Mice were anesthetized intraperitoneally with avertin (0.5 mg/g). Mice were then immobilized in a rodent stereotaxic frame (Kopf Instruments, Tujunga Calif.) and maintained with avertin as needed. The surgical area of the head was swabbed with 70% ethanol and a lateral incision was made between the right orbit and the right ear. […] The distal course of the middle cerebral artery (MCA) was visible through the translucent skull. A small burr-hole craniotomy was performed with a micro-drill (Fine Science Tools, Foster City Calif.). The meninges/dura was removed and the MCA was coagulated by bipolar diathermy. The muscle and soft tissue were replaced and the incision closed with vet-bond adhesive (3M, St. Paul Minn.). These studies were performed in two different mouse models of pMCAO as described below.
In one series of experiments, male C57BL/6 mice (25-35 g) were subjected to permanent occlusion of the MCA as described above. Compounds of the present invention were administered by intravenous injection at various times before or after MCA occlusion (see Table 7). Animals administered compound by intravenous injection received a 6 ml/kg volume of either 5% Dextrose with an equimolar amount of Meglumine (vehicle control) or 20-60 mg/kg of a compound of the present invention in 5% dextrose with an equimolar amount of Meglumine. Body temperature of the animals was maintained by use of a heating pad both during and after surgery. Twenty-four hours after MCA occlusion animals were euthanized with CO2 and their brains removed. After removal, the brain was sliced in 7 coronal sections, each 1 mm thick. The sections were placed rostral side down in a petri dish and stained with 1% Triphenyl tetrazolium chloride for 20 minutes at 37° C. for determination of infarct volume. Brain sections were then digitally photographed and analyzed for changes in infarct volume and extent of edema. Infarct volumes were determined by measuring the infarcted (i.e., non-stained) areas of each brain section and multiplying this value by the section thickness. Extent of edema was determined by the net increase in volume of the ipsilateral cortex compared to that of the contralateral cortex of brain sections.
The effect of compounds of the present invention administered at various times following the onset of stroke was examined further as follows. In these studies, changes in infarct volume were measured using an animal model of stroke when compounds of the present invention were administered from 0 to 8 hours following permanent MCA occlusion. In one series of experiments, male C57BL/6 mice (25-35 g) were subjected to permanent occlusion of the MCA as described above. Compound F was administered to the animals by a single intravenous bolus injection at various times up to 5 hours after MCA occlusion (see Table 8 below). Animals administered compound by intravenous injection received a 6 ml/kg volume of either 5% Dextrose with an equimolar amount of NaOH (vehicle control) or 60 mg/kg of Compound F in 5% dextrose with an equimolar amount of NaOH. Body temperature of the animals was maintained by use of a heating pad both during and after surgery. Changes in infarct volumes were determined as described above.
In another set of experiments, male C57BL/6 mice (25-35 g) were subjected to permanent occlusion of the MCA as described above. Compound F was administered by single intravenous bolus injection at various times up to 8 hours after MCA occlusion (see Table 9 below). Animals administered compound by intravenous injection received a 6 ml/kg volume of either 5% Dextrose with an equimolar amount of Meglumine (vehicle control) or 60 mg/kg of Compound F in 5% dextrose with an equimolar amount of Meglumine. […]

[5] = compound given 4 hr after occlusion

Structure (SMILES)	Fold Increase Over Control (erythropoietin (EPO) [1])	EPO (erythropoietin (EPO) [1]) [mIU/ml]	EPO Fold Increase (erythropoietin (EPO) [2])	EPO (erythropoietin (EPO) [2]) [mIU/ml]	VEGF Fold Increase [3]	VEGF [3] [pg/mL]	fold induction at 20 mg/kg (erythropoietin)	EPO (erythropoietin; mouse EPO ELISA kit (**)) [pg/mL]	fold induction at 20 mg/kg (VEGF)	VEGF (VEGF) [pg/mL]	inhibition in vivo at up to 20 mg/kg ([4]; compound given 0 hr) [%]	EPO (erythropoietin; human EPO ELISA kit (*)) [mIU/ml]	inhibition in vivo at up to 20 mg/kg [4, 5] [%]
N#Cc1nc(C(=O)NCC(=O)O)c(O)c2ccc(Oc3ccc(F)cc3)cc12 [Compound R, {[1-Cyano-7-(4-fluoro-phenoxy)-4-hydroxy-isoquinoline-3-carbonyl]-amino}-acetic acid]	25.3	49.1	19.71	372.6	7.4	2735	52.4	555.5	1.38	54	32		
O=C(O)CNC(=O)c1ncc2cc(Oc3ccccc3)ccc2c1O [Compound AC, [(4-Hydroxy-7-phenoxy-isoquinoline-3-carbonyl)-amino]acetic acid]	10.8	160.1	11.9	73.8	15.8	2503.8	2940		2.15	70	17	294	
Cc1nc2ccc(Oc3ccc4c(O)c(C(=O)NCC(=O)O)ncc4c3)cc2o1 [Compound N, {[4-Hydroxy-7-(2-methyl-benzooxazol-6-yloxy)-isoquinoline-3-carbonyl]-amino}-acetic acid]	13.5	89.9	14.52	380.5	4.6	6316	70.2	63.2	2.28	66	46		
N#Cc1nc(C(=O)NCC(=O)O)c(O)c2cc(Oc3ccc4c(c3)CCO4)ccc12 [Compound AO, {[1-Cyano-6-(2,3-dihydro-benzofuran-5-yloxy)-4-hydroxy-isoquinoline-3-carbonyl]-amino}-acetic acid]	83.4	83.4	19.55	369.5	4.6	6653	92.8	12719	0.97	38			55
O=C(O)CNC(=O)c1nc(-c2ccoc2)c2ccsc2c1O [Compound AI, [(4-Furan-3-yl-7-hydroxy-thieno[3,2-c]pyridine-6-carbonyl)-amino]-acetic acid]	6.1	7.9	17.02	321.6	4.8	7003	1.96	221	0.91	20			
COc1cccc(Oc2cccc3c(O)c(C(=O)NCC(=O)O)nc(C#N)c23)c1 [Compound AP, {[1-Cyano-4-hydroxy-8-(3-methoxy-phenoxy)-isoquinoline-3-carbonyl]-amino}-acetic acid]	17.2	53.4	1.44	27.2	2.2	3266	20.1	3595	0.43	27			
N#Cc1nc(C(=O)NCC(=O)O)c(O)c2c(Oc3ccccc3)cccc12 [Compound AM, [(1-Cyano-4-hydroxy-5-phenoxy-isoquinoline-3-carbonyl)-amino]-acetic acid]	8.2	44.3	6.25	118.07	4.0	5825	235	28206	0.38	24			71
N#Cc1nc(C(=O)NCC(=O)O)c(O)c2sccc12 [Compound AH, [(4-Cyano-7-hydroxy-thieno[3,2-c]pyridine-6-carbonyl)-amino]-acetic acid]	7.1	13.4	11.95	225.8	4.5	6590	11.6	1242	1.76	44			
O=C(O)CNC(=O)c1nc(Br)c2cc(Br)sc2c1O [Compound AD, [(2,4-Dibromo-7-hydroxy-thieno[3,2-c]pyridine-6-carbonyl)-amino]-acetic acid]	6.5	34.9	7.3	138.2	3.5	5123.0	27.4	1997	2.54	66			
